Results published in patent EP1136503A1, “NOVEL PHYSIOLOGICALLY ACTIVE SUBSTANCE, PROCESS FOR PRODUCING THE SAME AND UTILIZATION THEREOF” (Takeda Chemical Industries, Ltd., priority 1998, dated 2001).
Where no end group is shown, it is not given here.

Tests used:
rat SENR [1] = assay: cAMP synthesis suppression in rat SENR-expression CHO cells; assay type: cell-based; conditions: forskolin
Experimental: A method for the cAMP synthesis suppressing activity of the bovine SENR ligand (SEQ ID NO:21) synthesized in EXAMPLE 14 on rat SENR-expression CHO cells is shown below. The CHO/SENR cells were inoculated on a 24-well plate in 5 × 10^4 cells/well followed by cultivation for 48 hours. The cells were then washed with Hanks' buffer (pH 7.4) containing 0.2 mM 3-isobutyl-methylxanthine, 0.05% BSA and 20 mM HEPES (hereinafter Hanks' buffer (pH 7.4) containing 0.2 mM 3-isobutyl-methylxanthine, 0.05% BSA and 20 mM HEPES is referred to as a reaction buffer). Thereafter, 0.5 ml of the reaction buffer was added to the system, which was kept in the medium for 30 minutes. The reaction buffer was removed and 0.25 ml of a fresh reaction buffer was added to the cells. Then, 0.25 ml of the reaction buffer containing various amounts of bovine SENR ligand and 2 µM forskolin was added to the cells followed by reacting at 37°C for 24 minutes. By adding 100 µl of 20% perchloric acid, the reaction was terminated. The reaction mixture was then allowed to stand on ice for an hour to extract intracellular CAMP. The amount of cAMP in the extract was measured using cAMP EIA kit (Amersham Pharmacia Biotech).

rat SENR [2] = assay: GTPγS binding to rat SENR-expression CHO cell membrane fraction; assay type: biochemical; conditions: peptide in various concentrations, 25°C 1 hour
Experimental: The [^35S] -guanosine 5'-(γ-thio)triphosphate binding promoting activity of bovine SENR ligand (SEQ ID NO:21) on SENR-expression CHO cell membrane fraction was measured by the following method. First, preparation of membrane fraction is described. To 1 x 10^8 of CHO/SENR cells was added 10 ml of a homogenate buffer (10 mM NaHCO3, 5 mM EDTA, 0.5 mM PMSF, 1 µg/ml pepstatin, 4 µg/ml E64, 20 µg/ml leupeptin), which was homogenized by using Polytron (12,000 rpm, 1 min.). The cell homogenate was subjected to centrifugation (1,000 g, 15 mins.) to give the supernatant. Next, the supernatant was subjected to ultracentrifugation (Beckman type 30 rotor, 30,000 rpm, 1 hour). The resulting precipitate was used as a rat SENR-expression CHO cell membrane.
The GTPγS binding activity was measured as follows. The rat SENR-expression CHO cell membrane was diluted with a buffer for membrane dilution (50 mM Tris-hydrochloride buffer (pH 7.4), 5 mM MgCl2, 150 mM NaCl, 1 µM GDP) to prepare a cell membrane fraction solution for assay having a protein concentration of 30 µg/ml. […] After washing twice with 1.5 ml of a buffer for filter washing (50 mM Tris-hydrochloride buffer (pH 7.4), 5 mM MgCl2, 1 mM EDTA, 0.1% BSA), radioactivity of the filter was measured using a liquid scintillation counter.

[3] = Blood pressure of rats under anesthesia; assay type: in vivo, Male Wistar rats; conditions: 10 nmols/kg intravenous, 8 rats, average + standard error
Experimental: The activity of the synthetic SENR ligand polypeptides ① and ② (SEQ ID NO:7 and SEQ ID NO:8) in various concentrations, which were synthesized in EXAMPLES 12 and 13, on blood pressure of rats under anesthesia was measured by the following method. Male Wistar rats of 8 to 9 weeks old (purchased from Nippon Crea Co.) were anesthetized with Nembutal injection (Dai-Nippon Pharmaceutical Co., 50 mg/ml sodium pentobarbital, 50 mg/kg i.p.). A catheter (SP-55) for blood pressure measurement connected with a transducer was inserted into the left carotid artery and a catheter (SP-35) for intravenous injection into the left femoral vein. The synthetic ligand was dissolved in physiological saline containing 0.05% BSA, which was cannulated through the left femoral vein in a dose of 1, 10 or 100 nmol/kg. The blood pressure was continuously recorded by means of a polygraph (manufactured by NEC Sanei Co.). […] The hypotensive action was shown by the average blood pressure reduced by administration of SENR ligand to the average blood pressure prior to administration. […]

[4] = biological target: rat SENR (sensory epithelium neuropeptide-like receptor) (rat); assay: cell-based or functional assay
human SENR (human) = assay: cell-based or functional assay

GPPSECFWKYCV (cysteine pairing not given here) [Bovine SENR ligand, Cys 6th and 11th form intramolecular disulfide bond]
amount of intracellular cAMP (rat SENR [1]; increasing peptide concentration): decreased dose dependently
amount of intracellular cAMP (rat SENR [1]; peptide 0.3 nM, 37°C 24 minutes): obviously reduced
amount of [^35S]-guanosine 5'-(γ-thio)triphosphate bound to the membrane fraction (rat SENR [2]): dose-dependently increased
Average blood pressure decreased [3]: 35.7 ± 7.0 mmHg

bovine SENR ligand (peptide)
cAMP synthesis suppressing activity (forskolin-stimulated; concentration at which an obvious reduction was seen) [4]: 0.3 nM

human SENR ligand (human urotensin II) (peptide)
cAMP synthesis suppressing activity (forskolin-stimulated; concentration at which an obvious reduction was seen) (human SENR (human)): 0.3 nM
